Results as given in US9850521B2 (Agilent Technologies, Inc., priority 2014, dated 2017).
“Also recorded” adds a separate entry of the source.

Biological target: Cas9 (Streptococcus pyogenes serotype M1, UniProt Q99ZW2)
Assay: Cas9 plasmid DNA cleavage assay, testing of surfactants
Format: biochemical
Settings: for effect on Cas9 enzyme activity: FIG. 4, versus absence of surfactants/detergents, two RNA guides; for % cleavage: linearized pKan-C1 substrate DNA, 30 min at 30° C.
Experimental: The reactions were stopped by heat inactivation of the enzyme at 65° C. for 15 minutes. Cleavage reactions were analyzed by Agilent Tape Station using Genomic Screen Tapes.
Reaction mixtures were incubated at 30° C. for 30 minutes followed by heat inactivation of the enzyme. Table 1 lists the surfactants/detergents used at various concentrations and the resulting DNA template cleavage percentage.

Chain of Cas9 (Q99ZW2 whole entry): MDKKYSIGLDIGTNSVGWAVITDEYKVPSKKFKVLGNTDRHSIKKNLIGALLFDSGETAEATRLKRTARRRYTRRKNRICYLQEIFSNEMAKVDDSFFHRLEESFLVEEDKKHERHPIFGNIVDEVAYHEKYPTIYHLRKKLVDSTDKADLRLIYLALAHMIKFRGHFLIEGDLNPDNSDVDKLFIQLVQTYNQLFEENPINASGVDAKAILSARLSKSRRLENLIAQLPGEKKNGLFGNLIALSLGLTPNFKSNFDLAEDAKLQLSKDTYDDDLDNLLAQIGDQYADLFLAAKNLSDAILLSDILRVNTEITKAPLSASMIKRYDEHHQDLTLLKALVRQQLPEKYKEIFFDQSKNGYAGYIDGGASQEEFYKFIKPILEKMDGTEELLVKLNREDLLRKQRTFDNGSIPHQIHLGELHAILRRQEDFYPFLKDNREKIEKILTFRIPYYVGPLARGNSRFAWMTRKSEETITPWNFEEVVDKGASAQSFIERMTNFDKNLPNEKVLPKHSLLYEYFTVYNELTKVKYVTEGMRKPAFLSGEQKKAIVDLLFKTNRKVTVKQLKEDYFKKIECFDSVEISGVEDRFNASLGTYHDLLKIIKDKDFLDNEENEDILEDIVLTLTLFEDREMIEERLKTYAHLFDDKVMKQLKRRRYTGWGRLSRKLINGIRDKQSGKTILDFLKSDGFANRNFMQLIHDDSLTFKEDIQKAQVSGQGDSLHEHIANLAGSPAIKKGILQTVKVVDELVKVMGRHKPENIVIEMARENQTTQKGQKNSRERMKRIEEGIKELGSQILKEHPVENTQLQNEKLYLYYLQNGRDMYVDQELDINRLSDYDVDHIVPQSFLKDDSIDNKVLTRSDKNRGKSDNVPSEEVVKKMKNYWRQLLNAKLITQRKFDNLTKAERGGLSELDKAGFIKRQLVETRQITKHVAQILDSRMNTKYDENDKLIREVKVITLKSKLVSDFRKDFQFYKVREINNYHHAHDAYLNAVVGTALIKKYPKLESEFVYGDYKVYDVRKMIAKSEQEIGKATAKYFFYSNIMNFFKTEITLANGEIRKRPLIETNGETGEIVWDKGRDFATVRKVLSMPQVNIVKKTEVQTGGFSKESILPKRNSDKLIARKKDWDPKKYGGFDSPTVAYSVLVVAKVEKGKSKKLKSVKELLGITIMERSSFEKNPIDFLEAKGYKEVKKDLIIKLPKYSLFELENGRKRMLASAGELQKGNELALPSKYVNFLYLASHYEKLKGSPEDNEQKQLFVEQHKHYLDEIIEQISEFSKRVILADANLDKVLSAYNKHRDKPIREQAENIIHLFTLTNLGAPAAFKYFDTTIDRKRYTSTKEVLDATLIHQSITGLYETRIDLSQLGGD

Compound | effect on Cas9 enzyme activity | % cleavage (Guide 601, detergent 0.025%) | % cleavage (Guide 601, detergent 0.05%) | % cleavage (Guide 601, detergent 0.1%) | % cleavage (Guide 601, detergent 0.2%) | % cleavage (Kan C1 Guide, detergent 0.025%) | % cleavage (Kan C1 Guide, detergent 0.05%) | % cleavage (Kan C1 Guide, detergent 0.1%) | % cleavage (Kan C1 Guide, detergent 0.2%)
octylphenoxypolyethoxyethanol [Triton X 100] | improved enzyme activity; also recorded: significantly increased Cas9 activity | 0.60% | 0.60% | 0.59% | 0.65% | 0.54% | 0.51% | 0.52% | 0.61%
C[C@H](CCC(=O)NCCC[N+](C)(C)CC(O)CS(=O)(=O)[O-])[C@H]1CC[C@H]2[C@@H]3[C@H](O)C[C@@H]4C[C@H](O)CC[C@]4(C)[C@H]3C[C@H](O)[C@]12C (stereo partly drawn) [Chapso, reference compound] | had no effect on Cas9 activity | 0.52% | 0.50% | 0.51% | 0.54% | 0.43% | 0.43% | 0.45% | 0.44%
